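GI50 = concentration required for 50% inhibition of growth. TGI: total growth inhibition.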
Tests used:
Experiment in all cases: growth of human tumour cells (NCI), 384-well format
RPMI-8226 leukemia = system: RPMI-8226 leukemia
UO-31 renal = system: UO-31 renal
HS 578T breast = system: HS 578T breast
PC-3 prostate = system: PC-3 prostate
SN12C renal = system: SN12C renal
NCI-H322M lung = system: NCI-H322M lung
MDA-MB-231 breast = system: MDA-MB-231 breast
RXF 393 renal = system: RXF 393 renal
CAKI-1 renal = system: CAKI-1 renal
HCC-2998 colon = system: HCC-2998 colon
A498 renal = system: A498 renal
SK-MEL-2 melanoma = system: SK-MEL-2 melanoma
SNB-19 CNS = system: SNB-19 CNS
MDA-MB-435 melanoma = system: MDA-MB-435 melanoma
U251 glioblastoma = system: U251 glioblastoma
A549 NSCLC = system: A549 NSCLC
K-562 leukemia = system: K-562 leukemia
IGROV1 ovarian = system: IGROV1 ovarian
HCT-15 colon = system: HCT-15 colon
SR leukemia = system: SR leukemia
SK-OV-3 ovarian = system: SK-OV-3 ovarian
NCI-H23 lung = system: NCI-H23 lung
OVCAR-3 ovarian = system: OVCAR-3 ovarian
MOLT-4 leukemia = system: MOLT-4 leukemia
SW-620 colon = system: SW-620 colon
MCF7 breast = system: MCF7 breast
SF-295 CNS = system: SF-295 CNS
NCI-H522 lung = system: NCI-H522 lung
SK-MEL-5 melanoma = system: SK-MEL-5 melanoma
OVCAR-8 ovarian = system: OVCAR-8 ovarian
SF-539 CNS = system: SF-539 CNS
NCI/ADR-RES ovarian = system: NCI/ADR-RES ovarian
HT29 colon = system: HT29 colon
DU-145 prostate = system: DU-145 prostate
CCRF-CEM leukemia = system: CCRF-CEM leukemia
TK-10 renal = system: TK-10 renal
ACHN renal = system: ACHN renal
NCI-H226 lung = system: NCI-H226 lung
UACC-62 melanoma = system: UACC-62 melanoma
SNB-75 CNS = system: SNB-75 CNS
COLO 205 colon = system: COLO 205 colon
KM12 colon = system: KM12 colon
HL-60(TB) leukemia = system: HL-60(TB) leukemia
SF-268 CNS = system: SF-268 CNS
MDA-MB-468 breast = system: MDA-MB-468 breast
T-47D breast = system: T-47D breast
786-0 renal = system: 786-0 renal

## Nc1nc(OCc2cc(Br)cs2)c2[nH]cnc2n1
RPMI-8226 leukemia
  GI50: 20.4 µM
  TGI: 40.4 µM
UO-31 renal
  GI50: 4.73 µM
  TGI: > 100 µM
HS 578T breast
  GI50: 22.8 µM
  TGI: 61.9 µM
PC-3 prostate
  GI50: 74 µM
  TGI: > 100 µM
SN12C renal
  GI50: 29 µM
  TGI: > 100 µM
NCI-H322M lung
  GI50: 30.7 µM
  TGI: 80.3 µM
MDA-MB-231 breast
  GI50: 40.7 µM
  TGI: > 100 µM
RXF 393 renal
  GI50: 24.5 µM
  TGI: 62.7 µM
CAKI-1 renal
  GI50: 25.1 µM
  TGI: 86.6 µM
HCC-2998 colon
  GI50: 66.7 µM
  TGI: > 100 µM
A498 renal
  GI50: 30.3 µM
  TGI: > 100 µM
SK-MEL-2 melanoma
  GI50: 35.5 µM
  TGI: 73.6 µM
SNB-19 CNS
  GI50: 70 µM
  TGI: > 100 µM
MDA-MB-435 melanoma
  GI50: 43.1 µM
  TGI: > 100 µM
U251 glioblastoma
  GI50: 31.3 µM
  TGI: > 95.1 µM
A549 NSCLC
  GI50: 42.6 µM
  TGI: > 100 µM
K-562 leukemia
  GI50: 27.8 µM
  TGI: > 100 µM
IGROV1 ovarian
  GI50: 30.7 µM
  TGI: > 100 µM
HCT-15 colon
  GI50: 33.9 µM
  TGI: > 100 µM
SR leukemia
  GI50: 8.96 µM
  TGI: 25.2 µM
SK-OV-3 ovarian
  GI50: 29.1 µM
  TGI: 74.7 µM
NCI-H23 lung
  GI50: 42.4 µM
  TGI: > 100 µM
OVCAR-3 ovarian
  GI50: 61.8 µM
  TGI: > 100 µM
MOLT-4 leukemia
  GI50: 17.3 µM
  TGI: 37.5 µM
SW-620 colon
  GI50: 67.4 µM
  TGI: > 100 µM
MCF7 breast
  GI50: 32.6 µM
  TGI: > 100 µM
SF-295 CNS
  GI50: 48.7 µM
  TGI: > 100 µM
NCI-H522 lung
  GI50: 27.6 µM
  TGI: > 77 µM
SK-MEL-5 melanoma
  GI50: 40.9 µM
  TGI: > 100 µM
OVCAR-8 ovarian
  GI50: 45.9 µM
  TGI: > 100 µM
SF-539 CNS
  GI50: 44.2 µM
  TGI: > 100 µM
NCI/ADR-RES ovarian
  GI50: 53.7 µM
  TGI: > 100 µM
HT29 colon
  GI50: 46 µM
  TGI: > 100 µM
DU-145 prostate
  GI50: 44.7 µM
  TGI: > 100 µM
CCRF-CEM leukemia
  GI50: 19.4 µM
  TGI: 40.3 µM
TK-10 renal
  GI50: 30.5 µM
  TGI: > 100 µM
ACHN renal
  GI50: 30.2 µM
  TGI: > 100 µM
NCI-H226 lung
  GI50: 45.9 µM
  TGI: 96.9 µM
UACC-62 melanoma
  GI50: 31.2 µM
  TGI: > 100 µM
SNB-75 CNS
  GI50: 29.7 µM
  TGI: 85.4 µM
COLO 205 colon
  GI50: 72.9 µM
  TGI: > 100 µM
KM12 colon
  GI50: 87.2 µM
  TGI: > 100 µM
HL-60(TB) leukemia
  GI50: 18 µM
  TGI: 35.8 µM
SF-268 CNS
  GI50: 32.1 µM
  TGI: > 84.9 µM
MDA-MB-468 breast
  GI50: 16.9 µM
  TGI: 47.5 µM
T-47D breast
  GI50: 23.4 µM
  TGI: 63.5 µM
786-0 renal
  GI50: 27.3 µM
  TGI: > 100 µM

— PubChem BioAssay (NCI)
